Key:
Assay in all cases: relative viability (nuclei count vs DMSO), 5 days (fraction); higher = more cells survive
[1] = compound: C1=CC2=NC=CN=C2C=C1/C=C/3\C(=O)NC(=O)S3 + NC(=O)Nc1cc(-c2cccc(F)c2)sc1C(=O)N[C@H]1CCCNC1 [AZD7762] (partner 0.2 µM)
Method in brief: (§1)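 Cells from lung cancer lines were seeded into 1536-well plates and, one day later, dosed by pin tool. Treatments were either a single drug or a fixed dose of an anchor drug with five library-drug doses (not always all listed) in √10 steps. After 5 days, nuclei were stained in a one-step fixation (final 0.05% Triton X-100, 1% formaldehyde, 1 ug/ml Hoechst) and counted on 4× images, and relative viability is the treated-to-vehicle nuclei ratio, as the median of duplicate plates.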

[2] = compound: C1=CC2=NC=CN=C2C=C1/C=C/3\C(=O)NC(=O)S3 + CS(=O)(=O)N1CCN(Cc2cc3nc(-c4cccc5[nH]ncc45)nc(N4CCOCC4)c3s2)CC1 [Pictilisib] (partner 1 µM)
Method in brief: as §1

BGJ398 + Phenformin = compound: CCN1CCN(c2ccc(Nc3cc(N(C)C(=O)Nc4c(Cl)c(OC)cc(OC)c4Cl)ncn3)cc2)CC1 [BGJ398] + N=C(N)NC(=N)NCCc1ccccc1 [Phenformin] (partner 250 µM)
Method in brief: as §1

[3] = compound: C1=CC2=NC=CN=C2C=C1/C=C/3\C(=O)NC(=O)S3 + CC(=O)Nc1cccc(-n2c(=O)n(C3CC3)c(=O)c3c(Nc4ccc(I)cc4F)n(C)c(=O)c(C)c32)c1 [Trametinib] (partner 0.02 µM)
Method in brief: as §1

| Cell Line | relative viability ([1]; first compound 0.02 µM) | relative viability ([1]; first compound 0.06325 µM) | relative viability ([1]; first compound 0.2 µM) | relative viability ([1]; first compound 0.6325 µM) | relative viability ([1]; first compound 2 µM) | relative viability ([2]; first compound 0.02 µM) | relative viability ([2]; first compound 0.06325 µM) | relative viability ([2]; first compound 0.2 µM) | relative viability ([2]; first compound 0.6325 µM) | relative viability ([2]; first compound 2 µM) | relative viability (BGJ398 + Phenformin; first compound 0.01 µM) | relative viability (BGJ398 + Phenformin; first compound 0.03162 µM) | relative viability (BGJ398 + Phenformin; first compound 0.1 µM) | relative viability (BGJ398 + Phenformin; first compound 0.3162 µM) | relative viability (BGJ398 + Phenformin; first compound 1 µM) | relative viability ([3]; first compound 0.02 µM) | relative viability ([3]; first compound 0.06325 µM) | relative viability ([3]; first compound 0.2 µM) | relative viability ([3]; first compound 0.6325 µM) | relative viability ([3]; first compound 2 µM) |
| --- | --- | --- | --- | --- | --- | --- | --- | --- | --- | --- | --- | --- | --- | --- | --- | --- | --- | --- | --- | --- |
| NCI-H1975 | 0.589 | 0.632 | 0.705 | 0.747 | 0.418 | 0.268 | 0.298 | 0.314 | 0.246 | 0.226 | 0.415 | 0.409 | 0.475 | 0.412 | 0.356 | 0.273 | 0.361 | 0.355 | 0.33 | 0.241 |
| CAL-12T | 0.675 | 0.531 | 0.655 | 0.582 | 0.726 | 0.341 | 0.444 | 0.716 | 0.39 | 0.64 | 0.542 | 0.621 | 0.599 | 0.579 | 0.642 | 0.398 | 0.301 | 0.426 | 0.309 | 0.271 |
| NCI-H1623 | – | – | – | – | – | – | – | – | – | – | 0.641 | 0.427 | 0.619 | 0.548 | 0.497 | – | – | – | – | – |
| HCC-44 | 0.885 | 1 | 1.02 | 1.01 | 1 | 0.615 | 0.563 | 0.593 | 0.552 | 0.514 | 0.213 | 0.349 | 0.193 | 0.195 | 0.161 | 0.961 | 1 | 1.05 | 1.12 | 1 |
| EKVX | 0.677 | 0.653 | 0.595 | 0.692 | 0.436 | 0.355 | 0.384 | 0.42 | 0.422 | 0.375 | 0.216 | 0.211 | 0.235 | 0.234 | 0.209 | 0.301 | 0.392 | 0.32 | 0.322 | 0.33 |
| NCI-H1651 | 0.472 | 0.289 | 0.508 | 0.471 | 0.417 | 0.547 | 0.574 | 0.598 | 0.462 | 0.472 | 0.303 | 0.394 | 0.381 | 0.325 | 0.274 | 0.821 | 0.642 | 0.86 | 0.849 | 0.725 |
| NCI-H1944 | 0.52 | 0.448 | 0.535 | 0.403 | 0.437 | 0.284 | 0.349 | 0.367 | 0.319 | 0.297 | 0.198 | 0.195 | 0.237 | 0.188 | 0.177 | 0.394 | 0.384 | 0.395 | 0.38 | 0.394 |
| NCI-H1703 | 0.126 | 0.109 | 0.135 | 0.124 | 0.128 | 0.241 | 0.318 | 0.187 | 0.243 | 0.232 | – | – | – | – | – | – | – | – | – | – |
| Calu-6 | – | – | – | – | – | 0.923 | 1.15 | 1.04 | 0.989 | 0.973 | – | – | – | – | – | – | – | – | – | – |
| EBC-1 | – | – | – | – | – | 0.407 | 0.518 | 0.42 | 0.413 | 0.459 | – | – | – | – | – | – | – | – | – | – |
| SW 1573 | – | – | – | – | – | 0.525 | 0.511 | 0.524 | 0.555 | 0.441 | 0.312 | 0.456 | 0.405 | 0.407 | 0.368 | 0.538 | 0.683 | 0.57 | 0.572 | 0.445 |
| A-427 | 0.826 | 0.849 | 0.709 | 0.8 | 0.776 | 0.711 | 0.685 | 0.788 | 0.675 | 0.679 | 0.354 | 0.336 | 0.273 | 0.151 | 0.211 | 0.777 | 0.773 | 0.725 | 0.75 | 0.596 |
| NCI-H2347 | 0.773 | 0.692 | 0.778 | 0.745 | 0.704 | 0.706 | 0.609 | 0.748 | 0.527 | 0.757 | 0.292 | 0.602 | 0.507 | 0.434 | 0.496 | 0.296 | 0.295 | 0.225 | 0.312 | 0.156 |
| NCI-H1355 | 0.789 | 0.67 | 0.749 | 0.691 | 0.544 | 0.274 | 0.411 | 0.499 | 0.459 | 0.364 | 0.44 | 0.465 | 0.454 | 0.464 | 0.423 | 0.385 | 0.432 | 0.462 | 0.413 | 0.382 |
| NCI-H358 | 0.556 | 0.406 | 0.621 | 0.473 | 0.204 | 0.357 | 0.344 | 0.402 | 0.38 | 0.258 | 0.29 | 0.296 | 0.395 | 0.317 | 0.462 | 0.145 | 0.122 | 0.139 | 0.126 | 0.11 |
| PC-3 [JPC-3] | 0.966 | 1.02 | 0.9 | 0.846 | 0.713 | 0.687 | 0.881 | 0.594 | 0.65 | 0.8 | 0.468 | – | 0.445 | 0.418 | 0.46 | 0.627 | 0.772 | 0.734 | 0.736 | 0.646 |
| NCI-H2228 | – | – | – | – | – | 0.384 | 0.36 | 0.441 | 0.274 | 0.22 | 0.328 | 0.32 | 0.243 | 0.299 | 0.28 | 0.51 | 0.556 | 0.562 | 0.398 | 0.338 |
| HOP-62 | 0.847 | 0.91 | 0.516 | 0.434 | 0.685 | 0.409 | 0.92 | 0.695 | 0.861 | 0.662 | 0.649 | 0.704 | 0.737 | 0.604 | 0.773 | 0.355 | 0.366 | 0.419 | 0.369 | 0.38 |
| HARA | 0.255 | 0.209 | 0.402 | 0.276 | 0.493 | 0.44 | 0.485 | 0.365 | 0.348 | 0.31 | 0.442 | 0.545 | 0.482 | 0.319 | 0.382 | 0.477 | 0.632 | 0.507 | 0.788 | 0.672 |

From the supplement of paper PMC10307832
